Assay results taken from ChEMBL document CHEMBL4038262, “Design, synthesis and antibacterial activities of thiouracil derivatives containing acyl thiourea as SecA inhibitors” (Bioorg Med Chem Lett, 2017).
In brackets after ≈: the same amount, converted by molar mass.

Columns and labels:
[1] = tested on: Bacillus amyloliquefaciens; test: Antibacterial activity against Bacillus amyloliquefaciens at 25 ug/ml after 24 hrs by plate colony counting method relative to control; assay type: functional
[2] = Inhibition of Escherichia coli BL21.19 SecA after 30 mins by malachite green dye-based assay
[3] = tested on: Escherichia coli; test: Inhibition of Escherichia coli BL21.19 SecA at 40 ug/ml after 30 mins by malachite green dye-based assay relative to control
[4] = tested on: Bacillus subtilis; test: Antibacterial activity against Bacillus subtilis at 25 ug/ml after 24 hrs by plate colony counting method relative to control; assay type: functional
[5] = tested on: Staphylococcus aureus; test: Antibacterial activity against Staphylococcus aureus at 25 ug/ml after 24 hrs by plate colony counting method relative to control; assay type: functional
[6] = tested on: Bacillus subtilis; test: Antibacterial activity against Bacillus subtilis after 24 hrs by plate colony counting method; assay type: functional
[7] = tested on: Bacillus amyloliquefaciens; test: Antibacterial activity against Bacillus amyloliquefaciens after 24 hrs by plate colony counting method; assay type: functional
[8] = tested on: Staphylococcus aureus; test: Antibacterial activity against Staphylococcus aureus after 24 hrs by plate colony counting method; assay type: functional
[9] = tested on: Escherichia coli; test: Inhibition of Escherichia coli BL21.19 SecA at 20 ug/ml after 30 mins by malachite green dye-based assay relative to control

Row | IC50 [2] | inhibition [3] | MIC [6] | MIC [7] | MIC [8] | inhibition [9] | SMILES | inhibition at 25 µg/mL [1] | inhibition at 25 µg/mL [4] | inhibition at 25 µg/mL [5]
1 | 39.4 µg/mL (≈ 74.1 µM) | 50% | – | – | – | – | N#Cc1c(-c2ccccc2)nc(SCc2ccc(C(=O)NC(=S)Nc3ccc(Cl)cc3)cc2)[nH]c1=O | 79% | 71% | 64%
2 | – | – | – | – | – | – | N#Cc1c(-c2ccc(-c3ccccc3)cc2)nc(SCc2ccc(C(=O)NC(=S)Nc3ccc(Cl)cc3)cc2)[nH]c1=O | 75% | 56% | 76%
3 | 16 µg/mL (≈ 26.6 µM) | – | 50 µg/mL (≈ 83.2 µM) | 25 µg/mL (≈ 41.6 µM) | 50 µg/mL (≈ 83.2 µM) | 50% | N#Cc1c(-c2ccccc2Cl)nc(SCc2ccc(C(=O)NC(=S)Nc3c(Cl)cccc3Cl)cc2)[nH]c1=O | 89% | 92% | 79%
4 | – | – | – | – | – | – | Cc1ccccc1NC(=S)NC(=O)c1ccc(CSc2nc(-c3ccccc3Cl)c(C#N)c(=O)[nH]2)cc1 | 78% | 82% | 71%
5 | 38.8 µg/mL (≈ 64.6 µM) | 50% | 50 µg/mL (≈ 83.2 µM) | 25 µg/mL (≈ 41.6 µM) | 50 µg/mL (≈ 83.2 µM) | – | N#Cc1c(-c2ccc(Cl)cc2)nc(SCc2ccc(C(=O)NC(=S)Nc3c(Cl)cccc3Cl)cc2)[nH]c1=O | 81% | 80% | 81%
6 | – | – | 50 µg/mL (≈ 78.7 µM) | 50 µg/mL (≈ 78.7 µM) | 50 µg/mL (≈ 78.7 µM) | – | N#Cc1c(-c2ccc(Cl)cc2Cl)nc(SCc2ccc(C(=O)NC(=S)Nc3c(Cl)cccc3Cl)cc2)[nH]c1=O | 72% | 69% | 68%
7 | – | – | – | – | – | – | N#Cc1c(-c2ccc(Cl)cc2Cl)nc(SCc2ccc(C(=O)NC(=S)Nc3ccccc3)cc2)[nH]c1=O | 56% | 66% | 79%
8 | 17.9 µg/mL (≈ 33.6 µM) | – | 25 µg/mL (≈ 47 µM) | 25 µg/mL (≈ 47 µM) | 50 µg/mL (≈ 94 µM) | 50% | N#Cc1c(-c2ccccc2Cl)nc(SCc2ccc(C(=O)NC(=S)Nc3ccccc3)cc2)[nH]c1=O | 67% | 87% | 80%
9 | – | – | – | – | – | – | N#Cc1c(-c2ccccc2)nc(SCc2ccc(C(=O)NC(=S)Nc3c(Cl)cccc3Cl)cc2)[nH]c1=O | 81% | 84% | 70%
10 | – | – | – | – | – | – | Cc1ccccc1NC(=S)NC(=O)c1ccc(CSc2nc(-c3ccccc3)c(C#N)c(=O)[nH]2)cc1 | 69% | 78% | 63%
11 | – | – | – | – | – | – | N#Cc1c(-c2c(Cl)cccc2Cl)nc(SCc2ccc(C(=O)NC(=S)Nc3ccc(Cl)cc3)cc2)[nH]c1=O | 49% | 63% | 68%
12 | 20.8 µg/mL (≈ 29.2 µM) | – | 50 µg/mL (≈ 70.1 µM) | 12.5 µg/mL (≈ 17.5 µM) | 25 µg/mL (≈ 35.1 µM) | – | N#Cc1c(-c2ccc(-c3ccccc3)cc2)nc(SCc2ccc(CSc3nc(-c4ccc(-c5ccccc5)cc4)c(C#N)c(=O)[nH]3)cc2)[nH]c1=O | 87% | 44% | 79%
13 | – | – | – | – | – | – | Cc1ccccc1NC(=S)NC(=O)c1ccc(CSc2nc(-c3ccc(Cl)cc3)c(C#N)c(=O)[nH]2)cc1 | 61% | 78% | 58%
14 | – | – | – | – | – | – | Cc1ccccc1NC(=S)NC(=O)c1ccc(CSc2nc(-c3c(Cl)cccc3Cl)c(C#N)c(=O)[nH]2)cc1 | 50% | 62% | 64%
15 | – | – | 50 µg/mL (≈ 87.2 µM) | 50 µg/mL (≈ 87.2 µM) | 50 µg/mL (≈ 87.2 µM) | – | N#Cc1c(-c2ccc(-c3ccccc3)cc2)nc(SCc2ccc(C(=O)NC(=S)Nc3ccccc3)cc2)[nH]c1=O | 62% | 72% | 83%
16 | – | – | – | – | – | – | N#Cc1c(-c2ccc(Cl)cc2Cl)nc(SCc2ccc(C(=O)NC(=S)Nc3ccc(Cl)cc3)cc2)[nH]c1=O | 74% | 74% | 69%
17 | – | – | – | – | – | – | N#Cc1c(-c2ccccc2)nc(SCc2ccc(C(=O)NC(=S)Nc3ccccc3)cc2)[nH]c1=O | 70% | 63% | 67%
18 | – | – | – | – | – | – | N#Cc1c(-c2ccc(Cl)cc2)nc(SCc2ccc(C(=O)NC(=S)Nc3ccc(Cl)cc3)cc2)[nH]c1=O | 61% | 91% | 62%
19 | – | – | 50 µg/mL (≈ 77.8 µM) | 50 µg/mL (≈ 77.8 µM) | 50 µg/mL (≈ 77.8 µM) | – | N#Cc1c(-c2ccc(-c3ccccc3)cc2)nc(SCc2ccc(C(=O)NC(=S)Nc3c(Cl)cccc3Cl)cc2)[nH]c1=O | 71% | 69% | 80%
20 | – | – | – | – | – | – | Cc1ccccc1NC(=S)NC(=O)c1ccc(CSc2nc(-c3ccc(Cl)cc3Cl)c(C#N)c(=O)[nH]2)cc1 | 55% | 54% | 66%
21 | – | – | – | – | – | – | Cc1ccccc1NC(=S)NC(=O)c1ccc(CSc2nc(-c3ccc(-c4ccccc4)cc3)c(C#N)c(=O)[nH]2)cc1 | 73% | 78% | 67%
22 | – | – | – | – | – | – | N#Cc1c(-c2ccc(Cl)cc2)nc(SCc2ccc(C(=O)NC(=S)Nc3ccccc3)cc2)[nH]c1=O | 70% | 63% | 67%
23 | – | – | – | – | – | – | N#Cc1c(-c2c(Cl)cccc2Cl)nc(SCc2ccc(C(=O)NC(=S)Nc3ccccc3)cc2)[nH]c1=O | 71% | 55% | 71%
24 | – | – | – | – | – | – | N#Cc1c(-c2ccccc2Cl)nc(SCc2ccc(C(=O)NC(=S)Nc3ccc(Cl)cc3)cc2)[nH]c1=O | 63% | 68% | 68%
25 | – | – | 50 µg/mL (≈ 78.7 µM) | 50 µg/mL (≈ 78.7 µM) | 50 µg/mL (≈ 78.7 µM) | – | N#Cc1c(-c2c(Cl)cccc2Cl)nc(SCc2ccc(C(=O)NC(=S)Nc3c(Cl)cccc3Cl)cc2)[nH]c1=O | 53% | 73% | 79%

Row | SMILES | IC50 [2] | inhibition [3] | MIC [6] | MIC [7] | MIC [8] | inhibition [9] | inhibition at 25 µg/mL [1] | inhibition at 25 µg/mL [4] | inhibition at 25 µg/mL [5]
26 | CCn1cc(C(=O)O)c(=O)c2cc(F)c(N3CCNCC3)cc21 [NORFLOXACIN] | – | – | 25 µg/mL (≈ 78.3 µM) | 25 µg/mL (≈ 78.3 µM) | 25 µg/mL (≈ 78.3 µM) | – | 84% | 89% | 78%
